In brackets after ≈: the same amount, converted by molar mass. Values belong to the molecule of their own block, whether it stands above or below them.
Experiments:
[1] = Solubility of calcimimetics in oil phases (RP-HPLC); assay type: physicochemical; conditions: long-chain oil phases; for solubility at 18 h: oil or lipid, thermodynamic from solid
Protocol: The solubility measurements of the compounds were prepared by the addition of 1 g of drug substance to two milliliters of oil into a Wheaton 5 mL vial. The headspace was sparged with nitrogen, and enclosed with a West 4405/50 gray Teflon coated stopper and manually sealed by an aluminum overseal. The preparations were repeated again with the oils containing either purified egg or soy lecithin. All labeled vials were shaken at room temperature for eighteen hours on a platform shaker. After eighteen hours, the samples were diluted in mobile phase, and analyzed by the RP-HPLC method. Table 2 summarizes solubility results (expressed in mg/mL) of cinacalcet in various oil phases.

[2] = Zeta potential titration of emulsions (droplet charge vs pH); assay type: physicochemical; conditions: SBO 10%, Lecithin 2% at pH 7; 5 mg/mL (formulation #1) versus 1 mg/mL (formulation #2)
Protocol: Panel A, titration results of 1% EYP/10% SBO in 1 mM dibasic phosphate. Panel B, titration results of cinacalcet/1% EYP/10% SBO in 1 mM dibasic phosphate. Other components of the emulsions include 10% soybean oil, 1% egg lecithin, 2.25% glycerin and water. Panel C, titration results for Compound A. Emulsion composition: SBO 10%, Lecithin 2% at pH 7. Concentration of Compound A was 5 mg/mL for formulation #1 and 1 mg/mL for formulation #2.
The zeta potential measurements were made on a Malvern Zetasizer 4 laser-scattering particle electrophoretic analyzer that measures the electrophoretic mobility and zeta potential distribution. Samples were prepared for the zeta potential titration by diluting the emulsion approximately 2500 fold in 1 mM dibasic phosphate pH 9 and titrating the solution with 100 mM phosphoric acid in 0.5 pH unit increments. […] Theoretically, the emulsions are stabilized by this charge, which prevents the droplets from coalescing. […] In contrast, the cinacalcet emulsions achieve charge neutrality in the range of pH 7-7.5.

[3] = Long-term storage stability of emulsions (assay, pH, particle size); assay type: physicochemical; conditions: Compound A emulsions; over 14 months at any of the storage conditions tested
Protocol: Calcimimetics emulsions for long-term studies were prepared at 5 mg/mL drug concentration, 5% SBO, 2% egg lecithin, 2% glycerin, 20 mM TRIS buffer at pH 9. The emulsions were packed in glass vials at 20 mL each and stored inverted in stability chambers. At each time-point, 3 vials from each chamber were pulled and analyzed for the calcimimetic concentration, pH and particle size. […] The values for pH dropped over time, with greater magnitude of drop seen at higher temperature.

rabbit ear vein = assay: Acute local venous toxicity / irritation in the rabbit ear vein (REV); assay type: in vivo; design: Erythema / Edema: scale not given here
Text: This Example illustrates the protective effect of the formulations of the invention as measured by irritation in the rabbit ear vein (REV). A typical protocol for evaluation of the local tolerance for formulations was as follows.
Dosing of animals. The rabbits used were male New Zealand rabbits weighing approximately 2.5 to 4 kg. The rabbits were acclimatized for a period of 10 days following receipt before the start of the study. The rabbits were randomized into groups based on the number of formulations to be studied. Typically 3 rabbits were used per group.
For each group of rabbits, the formulation containing the drug to be tested was dosed in the right marginal ear vein, with the corresponding placebo being dosed at the same time in the left marginal ear vein. The placebos were prepared such that they matched the formulation composition, and the technique of dosing for the drug formulations and the placebo formulations were kept the same. Typical dosing volumes ranged from 1 mL/kg to 5 mL/kg. The formulations were either dosed as (a) bolus injection wherein the entire dosing volume was administered within 5 minutes; (b) 30 minute infusion; or (c) a 2 hour infusion. The formulations were administered through appropriately sized syringes and catheters. The injection sites were marked with indelible ink for identification at each observation period. The rabbits were dosed based upon the Day 1 body weight.
Observation of animals. Each animal was observed cage side at least twice daily for mortality/morbundity. Each animal received a detailed clinical observation once prior to randomization, once prior to dosage administration and once daily thereafter.
Any abnormalities were recorded as they were observed. Observations for local irritation were scored according to the following scale
At each interval the area of irritation (if present) was also measured. The actual length and width in mm was recorded.
On day 3 the animals were euthanized and the tissues from the Pinna of the left and right ear, and any gross lesions (if present) of the ear or ear vein were collected. Histopathology was performed on the collected tissues. After fixation, the pinna was tripped into a total of 4 sections of 1 cm each; one of which included the deposition site (location of the end of the catheter in the ear) and one from approximately 1-, 2-, and 3-cm downstream from the deposition site. Each section included skin, cartilage, vein and other soft tissue. These tissues were then embedded in paraffin, sectioned and stained with hematoxylin and eosin, and examined via light microscopy.

[4] = Loss in drug strength due to adsorption to PVC tubing; assay type: physicochemical
Protocol: A solution of compound A was prepared in acetate mannitol buffer at pH 4. At this pH, the compound forms a clear solution of concentration 0.2 mg/mL. An equivalent emulsion was prepared at the same concentration with 5% soybean oil, 2% lecithin, 2% glycerin and 20 mM TRIS buffer at pH 9. PVC tubing was selected as an example of commonly used intravenous infusion set. 15 cm sections of this tube were filled with either the solution or emulsion formulation and clamped on both ends. These filled tubes were held at the ambient temperature for 1 hour. The formulations inside were collected and analyzed for drug content using reversed phase HPLC. […] Panel A: Compound A in acetate/mannitol solution, pre-exposure. Panel B: compound A in acetate/mannitol solution, after 1 hour of exposure to the PVC tubing. Panel C: compound A formulated in the emulsion of the invention, pre-exposure. Panel D: compound A formulated in the emulsion of the invention, pre-exposure, after 1 hour of exposure to the PVC tubing.

cytochrome P450 2D6 = cytochrome P450 2D6 (Homo sapiens, UniProt P10635); conditions: stated as known; cited from earlier work
[5] = emulsion with TRIS buffer 20 mM, pH 9, 2-hour infusion, 2 mg/kg (conc. 5 mg/mL), 0 h
[6] = emulsion with TRIS buffer 20 mM, pH 9, 2-hour infusion, 2 mg/kg (conc. 5 mg/mL), 48 h
[7] = emulsion with TRIS buffer 20 mM, pH 9, 2-hour infusion, 6 mg/kg (conc. 5 mg/mL), 0 h
[8] = emulsion with TRIS buffer 20 mM, pH 9, 2-hour infusion, 6 mg/kg (conc. 5 mg/mL), 48 h
[9] = solution in acetate mannitol buffer, pH 4, 2 hour infusion, 1 mg/kg (conc. 0.1 mg/mL), 0 h
[10] = solution in acetate mannitol buffer, pH 4, 2 hour infusion, 1 mg/kg (conc. 0.1 mg/mL), 48 h

Chain of cytochrome P450 2D6 (P10635 whole entry, the tested form may be a part): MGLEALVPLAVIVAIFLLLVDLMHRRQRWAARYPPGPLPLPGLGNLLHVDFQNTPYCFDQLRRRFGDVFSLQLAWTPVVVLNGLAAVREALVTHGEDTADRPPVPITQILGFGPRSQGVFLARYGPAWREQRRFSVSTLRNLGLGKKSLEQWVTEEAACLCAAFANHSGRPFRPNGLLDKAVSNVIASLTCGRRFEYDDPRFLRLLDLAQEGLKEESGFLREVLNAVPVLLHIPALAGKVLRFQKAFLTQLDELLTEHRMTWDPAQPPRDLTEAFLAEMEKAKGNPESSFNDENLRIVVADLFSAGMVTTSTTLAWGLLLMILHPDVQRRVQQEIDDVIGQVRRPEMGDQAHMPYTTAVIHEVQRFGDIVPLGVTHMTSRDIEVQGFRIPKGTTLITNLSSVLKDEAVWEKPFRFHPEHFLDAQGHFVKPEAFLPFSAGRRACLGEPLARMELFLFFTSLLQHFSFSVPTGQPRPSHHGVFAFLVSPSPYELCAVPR

Compound: COc1ccc(CN[C@H](C)c2ccccc2)cc1-c1ccc(C(F)(F)F)cc1 [Compound A, (1R)—N-((6-(methyloxy)-4′-(trifluoromethyl)-1,1′-biphenyl-3-yl)methyl)-1-phenylethanamine]
- solubility at 18 h [1]: > 300 mg/mL
- pH at which emulsion reaches neutral charge [2]: reaches neutral charge at a higher pH
- change in particle size [3]: No change
- local venous toxicity (rabbit ear vein; dosed as a solution): evidence of local venous toxicity
- effect on the vasculature (rabbit ear vein; emulsion containing Compound A): protective effect on the vasculature
- Edema (rabbit ear vein; [5]): 0.0 ± 0.0
- Erythema (rabbit ear vein; [5]): 0.0 ± 0.0
- Edema (rabbit ear vein; [6]): 0.0 ± 0.0
- Erythema (rabbit ear vein; [6]): 0.0 ± 0.0
- Edema (rabbit ear vein; [7]): 0.0 ± 0.0
- Erythema (rabbit ear vein; [7]): 0.0 ± 0.0
- Edema (rabbit ear vein; [8]): 0.0 ± 0.0
- Erythema (rabbit ear vein; [8]): 0.0 ± 0.0
- Histopathology: severity and incidence of edema, hemorrhage and subacute inflammation (rabbit ear vein; emulsion with TRIS buffer 20 mM, pH 9, 2-hour infusion, 2 and 6 mg/kg, compared to the solution): much lower in all thee animals as compared
- Edema (rabbit ear vein; [9]): 0.0 ± 0.0
- Erythema (rabbit ear vein; [9]): 0.0 ± 0.0
- Edema (rabbit ear vein; [10]): 0.0 ± 0.0
- Erythema (rabbit ear vein; [10]): 1.3 ± 2.3
- Histopathology: severity and incidence of edema, hemorrhage and subacute inflammation (rabbit ear vein; solution in acetate mannitol buffer, pH 4, 2 hour infusion, 1 mg/kg, compared to placebo): higher in the ears treated with Compound A
- difference in concentration of drug before or after exposure to tubing ([4]; 0.2 mg/mL emulsion (5% soybean oil, 2% lecithin, 2% glycerin, 20 mM TRIS, pH 9), 1 hour): no significant difference
- drug concentration after 1 hour holding in the tubing ([4]; 0.2 mg/mL solution in acetate mannitol buffer at pH 4, ambient temperature): about 50 % of initial concentration

- solubility at 18 h [1]: 50 mg/mL (≈ 111 mM)
Compound: COc1ccc(CN[C@H](C)c2cccc3ccccc23)cc1-c1ccc(OC(F)(F)F)cc1 [Compound B, (1R)—N-((6-(methyloxy)-4′-((trifluoromethyl)oxy)-1,1′-biphenyl-3-yl)methyl)-1-(1-naphthalenyl)ethanamine]

- solubility at 18 h [1]: > 300 mg/mL
Compound: COc1ccc(CN[C@H](C)c2ccccc2)cc1-c1ccc(OC(F)(F)F)cc1 [Compound C, (1R)—N-((6-(methyloxy)-4′-((trifluoromethyl)oxy)-1,1′-biphenyl-3-yl)methyl)-1-phenylethanamine]

- solubility at 18 h [1]: > 300 mg/mL
Compound: COc1ccc(CN[C@H](C)c2cccc(F)c2)cc1-c1ccc(C(F)(F)F)cc1 [Compound D, (1R)-1-(3-fluorophenyl)-N-((6-(methyloxy)-4′-(trifluoromethyl)-1,1′-biphenyl-3-yl)methyl)ethanamine]

- solubility at 18 h [1]: > 300 mg/mL
Compound: COc1ccc(CN[C@H](C)c2cccc(Cl)c2)cc1-c1ccc(C(F)(F)F)cc1 [Compound E, (1R)-1-(3-chlorophenyl)-N-((6-(methyloxy)-4′-(trifluoromethyl)-1,1′-biphenyl-3-yl)methyl)ethanamine]

- solubility at 18 h [1]: > 300 mg/mL
Compound: CCn1cc(-c2cccc(C(F)(F)F)c2)c2cc(CN[C@H](C)c3ccccc3)ccc21 [Compound F, (1R)—N-((1-ethyl-3-(3-(trifluoromethyl)phenyl)-1H-indol-5-yl)methyl)-1-phenylethanamine]

- Solubility [1]: >50 mg/mL
Compound: COc1ccc([C@@H](C)N[C@H](C)c2ccccc2)cc1-c1ccc(C(F)(F)F)cc1 [Compound G]

Compound: C[C@@H](NCc1ccc(Cl)c(-c2ccc(OC(F)(F)F)cc2)c1)c1cccc2ccccc12 [Compound H, (1R)—N-((6-chloro-4′-((trifluoromethyl)oxy)-3-biphenyl)methyl)-1-(1-naphthalenyl)ethanolamine]
- Solubility [1]: >50 mg/mL

Compound: C[C@@H](NCCCc1cccc(C(F)(F)F)c1)c1cccc2ccccc12 [Sensipar]
- metabolism (cytochrome P450 2D6): metabolized by cytochrome P450 2D6

From patent publication US8779004B2, “Stable emulsion formulations” (Amgen, Inc., priority 2006, dated 2014)
